From patent US9783527B2, “Indazole ureas and method of use” (AbbVie Inc., priority 2014, dated 2017)

Experiments:
human Nav1.7 = human Nav1.7 (Homo sapiens (Human), UniProt Q15858); experiment: FRET-based membrane potential assay, recombinant human sodium channel Nav1.7; assay type: cell-based; settings: HEK293 cells stably expressing recombinant human Nav1.7; depolarization with veratridine (EC80) + scorpion venom
Outline: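 IC50 derived by four-parameter Hill fit of percent inhibition of depolarization, measured as peak F440-480/F565-625 ratio over baseline. Stable human Nav1.7 HEK293 cells, dye-loaded with CC2-DMPE and DiSBAC2(3)/VABSC-1 at room temperature, received compound 3 min ahead of veratridine (EC80) plus scorpion venom.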

human Nav1.8 = human Nav1.8 (Homo sapiens (Human), UniProt Q9Y5Y9); experiment: FRET-based membrane potential assay, recombinant human sodium channel Nav1.8; assay type: cell-based; settings: HEK293 cells stably expressing recombinant human Nav1.8; depolarization with veratridine (EC80) + scorpion venom
Protocol: FRET-Based Membrane Potential Assays.
Recombinant, Human Sodium Channel, Nav1.8.
Two days prior to the experiment, frozen HEK293 cells stably expressing recombinant human Nav1.8 (Essen, Ann Arbor, Mich.) were quickly thawed and plated at 22,500 cells/well in growth medium [MEM (Invitrogen #11095) with 10% FBS (Invitrogen #10082), 1 mM sodium pyruvate (Invitrogen, #C11360), 10 units/mL penicillin/10 U/mL streptomycin/29.2 μg/mL glutamine ((PSG 1%, Invitrogen #10378), 400 μg/mL zeocin (Invitrogen #R250) in black-walled, clear-bottom 384-well poly-D-lysine-coated assay plates (Greiner Bio-One, Frickenhausen, Germany) and incubated in a humidified 5% CO2 incubator at 37° C. On the day of the assay, medium was removed by aspiration, and cells were washed with assay buffer [HBSS (Invitrogen, Carlsbad, Calif.) containing 20 mM HEPES (Invitrogen, Carlsbad, Calif.)]. After washing, 30 μL assay buffer containing the fluorescent voltage-sensor probe CC2-DMPE (Invitrogen, Carlsbad, Calif.) at 20 μM and 0.01% pluronic F-127 (Invitrogen, Carlsbad, Calif.) was added to the cells. Cells were incubated for 40 minutes at room temperature in the dark. Following the incubation, the cells were washed and 30 μL assay buffer containing 2.5 μM DiSBAC2(3) substrate (Invitrogen, Carlsbad, Calif.) and 0.5 mM VABSC-1 (Invitrogen, Carlsbad, Calif.) was added to the cells. The cells were incubated for 60 minutes at room temperature in the dark. Fluorescence readings were made using a FLIPR®^TETRA (Molecular Devices, Sunnyvale Calif.) equipped with voltage-sensor probe optics. The depolarizing agent, veratridine (Sigma-Aldrich, St. Louis, Mo.), was made up at 3× concentrations in assay buffer containing 1 mg/mL scorpion venom (SVqq, from Leiurus quinquestriatus; Sigma-Aldrich, St. Louis, Mo.). The assay agonist/opener concentration was determined each day using a 6-point veratridine concentration curve in duplicate, tested with three concentrations of tetracaine (0.1, 0.06, 0.01 μM all in 0.03% dimethyl sulfoxide) and 0.03% dimethyl sulfoxide control in assay buffer. […] Test compounds in the daughter plate were diluted to (˜3×) solutions in assay buffer immediately before assaying. Using the FLIPR®^TETRA, 20 μL of the (3×) compound solutions were first added to the cells, then 20 μL of depolarizing solution (3×EC80 veratridine+SVqq) were added 3 minutes later to activate the channel. Changes in fluorescence were measured at wavelengths of 440-480 nm and 565-625 nm over the course of the experimental run. Membrane depolarization was expressed as a ratio of the maximum F440-480 nm/F565-625 nm reading above average baseline F440-480 nm/F565-625 nm reading. IC50 values were calculated from curve fits of the ratio data using a four-parameter logistic Hill equation (Accelrys Assay Explorer 3.3 Client, Accelrys, San Diego, Calif.) with percent inhibition plotted against compound concentration.

human Nav1.7, sequence (Q15858 whole entry): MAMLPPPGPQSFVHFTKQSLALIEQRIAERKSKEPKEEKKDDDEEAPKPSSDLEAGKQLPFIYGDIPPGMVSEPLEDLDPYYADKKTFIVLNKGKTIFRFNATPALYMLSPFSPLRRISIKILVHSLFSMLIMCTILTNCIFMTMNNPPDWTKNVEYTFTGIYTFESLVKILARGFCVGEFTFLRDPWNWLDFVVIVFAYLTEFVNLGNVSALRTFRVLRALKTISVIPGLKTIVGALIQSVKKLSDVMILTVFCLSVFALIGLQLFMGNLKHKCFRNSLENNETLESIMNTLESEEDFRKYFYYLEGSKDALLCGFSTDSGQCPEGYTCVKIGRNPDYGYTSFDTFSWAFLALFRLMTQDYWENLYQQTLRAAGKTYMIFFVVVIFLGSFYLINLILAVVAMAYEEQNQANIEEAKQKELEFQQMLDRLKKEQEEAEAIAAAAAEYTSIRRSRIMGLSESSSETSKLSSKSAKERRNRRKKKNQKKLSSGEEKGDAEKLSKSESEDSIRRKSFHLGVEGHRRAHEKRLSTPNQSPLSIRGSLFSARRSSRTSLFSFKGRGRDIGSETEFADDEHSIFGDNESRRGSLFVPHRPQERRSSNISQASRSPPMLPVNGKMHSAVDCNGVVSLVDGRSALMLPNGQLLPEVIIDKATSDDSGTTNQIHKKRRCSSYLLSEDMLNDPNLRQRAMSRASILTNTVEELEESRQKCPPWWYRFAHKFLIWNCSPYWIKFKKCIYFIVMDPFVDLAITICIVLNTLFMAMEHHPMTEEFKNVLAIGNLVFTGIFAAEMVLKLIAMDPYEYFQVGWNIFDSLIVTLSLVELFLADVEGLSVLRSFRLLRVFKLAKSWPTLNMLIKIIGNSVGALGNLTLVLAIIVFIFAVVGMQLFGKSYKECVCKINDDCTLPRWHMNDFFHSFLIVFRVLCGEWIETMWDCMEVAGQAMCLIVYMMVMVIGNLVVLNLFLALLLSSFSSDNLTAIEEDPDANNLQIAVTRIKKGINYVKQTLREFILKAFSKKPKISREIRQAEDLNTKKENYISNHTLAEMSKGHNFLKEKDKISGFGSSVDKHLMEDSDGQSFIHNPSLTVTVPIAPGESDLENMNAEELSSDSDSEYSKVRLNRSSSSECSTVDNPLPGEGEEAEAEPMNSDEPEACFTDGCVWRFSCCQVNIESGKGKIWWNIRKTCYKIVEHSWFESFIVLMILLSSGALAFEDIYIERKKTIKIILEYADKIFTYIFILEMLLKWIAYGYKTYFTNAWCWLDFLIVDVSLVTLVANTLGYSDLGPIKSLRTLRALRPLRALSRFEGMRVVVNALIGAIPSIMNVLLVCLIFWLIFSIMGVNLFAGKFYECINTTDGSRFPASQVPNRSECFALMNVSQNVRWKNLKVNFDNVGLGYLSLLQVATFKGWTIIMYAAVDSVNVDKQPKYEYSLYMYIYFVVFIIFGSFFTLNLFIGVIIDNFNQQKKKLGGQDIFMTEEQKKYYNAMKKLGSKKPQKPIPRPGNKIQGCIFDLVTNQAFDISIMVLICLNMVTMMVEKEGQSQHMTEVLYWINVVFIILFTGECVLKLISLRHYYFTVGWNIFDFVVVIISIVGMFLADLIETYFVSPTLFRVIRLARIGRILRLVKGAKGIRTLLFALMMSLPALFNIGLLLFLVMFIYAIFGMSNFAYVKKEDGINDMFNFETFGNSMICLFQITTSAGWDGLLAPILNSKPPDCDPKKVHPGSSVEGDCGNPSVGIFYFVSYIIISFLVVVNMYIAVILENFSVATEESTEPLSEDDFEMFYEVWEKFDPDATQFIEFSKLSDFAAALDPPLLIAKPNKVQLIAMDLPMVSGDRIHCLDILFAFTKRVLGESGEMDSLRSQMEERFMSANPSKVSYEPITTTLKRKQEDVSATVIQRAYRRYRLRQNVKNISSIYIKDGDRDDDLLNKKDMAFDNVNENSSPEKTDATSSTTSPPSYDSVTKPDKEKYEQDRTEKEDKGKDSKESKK
human Nav1.8, sequence (Q9Y5Y9 whole entry): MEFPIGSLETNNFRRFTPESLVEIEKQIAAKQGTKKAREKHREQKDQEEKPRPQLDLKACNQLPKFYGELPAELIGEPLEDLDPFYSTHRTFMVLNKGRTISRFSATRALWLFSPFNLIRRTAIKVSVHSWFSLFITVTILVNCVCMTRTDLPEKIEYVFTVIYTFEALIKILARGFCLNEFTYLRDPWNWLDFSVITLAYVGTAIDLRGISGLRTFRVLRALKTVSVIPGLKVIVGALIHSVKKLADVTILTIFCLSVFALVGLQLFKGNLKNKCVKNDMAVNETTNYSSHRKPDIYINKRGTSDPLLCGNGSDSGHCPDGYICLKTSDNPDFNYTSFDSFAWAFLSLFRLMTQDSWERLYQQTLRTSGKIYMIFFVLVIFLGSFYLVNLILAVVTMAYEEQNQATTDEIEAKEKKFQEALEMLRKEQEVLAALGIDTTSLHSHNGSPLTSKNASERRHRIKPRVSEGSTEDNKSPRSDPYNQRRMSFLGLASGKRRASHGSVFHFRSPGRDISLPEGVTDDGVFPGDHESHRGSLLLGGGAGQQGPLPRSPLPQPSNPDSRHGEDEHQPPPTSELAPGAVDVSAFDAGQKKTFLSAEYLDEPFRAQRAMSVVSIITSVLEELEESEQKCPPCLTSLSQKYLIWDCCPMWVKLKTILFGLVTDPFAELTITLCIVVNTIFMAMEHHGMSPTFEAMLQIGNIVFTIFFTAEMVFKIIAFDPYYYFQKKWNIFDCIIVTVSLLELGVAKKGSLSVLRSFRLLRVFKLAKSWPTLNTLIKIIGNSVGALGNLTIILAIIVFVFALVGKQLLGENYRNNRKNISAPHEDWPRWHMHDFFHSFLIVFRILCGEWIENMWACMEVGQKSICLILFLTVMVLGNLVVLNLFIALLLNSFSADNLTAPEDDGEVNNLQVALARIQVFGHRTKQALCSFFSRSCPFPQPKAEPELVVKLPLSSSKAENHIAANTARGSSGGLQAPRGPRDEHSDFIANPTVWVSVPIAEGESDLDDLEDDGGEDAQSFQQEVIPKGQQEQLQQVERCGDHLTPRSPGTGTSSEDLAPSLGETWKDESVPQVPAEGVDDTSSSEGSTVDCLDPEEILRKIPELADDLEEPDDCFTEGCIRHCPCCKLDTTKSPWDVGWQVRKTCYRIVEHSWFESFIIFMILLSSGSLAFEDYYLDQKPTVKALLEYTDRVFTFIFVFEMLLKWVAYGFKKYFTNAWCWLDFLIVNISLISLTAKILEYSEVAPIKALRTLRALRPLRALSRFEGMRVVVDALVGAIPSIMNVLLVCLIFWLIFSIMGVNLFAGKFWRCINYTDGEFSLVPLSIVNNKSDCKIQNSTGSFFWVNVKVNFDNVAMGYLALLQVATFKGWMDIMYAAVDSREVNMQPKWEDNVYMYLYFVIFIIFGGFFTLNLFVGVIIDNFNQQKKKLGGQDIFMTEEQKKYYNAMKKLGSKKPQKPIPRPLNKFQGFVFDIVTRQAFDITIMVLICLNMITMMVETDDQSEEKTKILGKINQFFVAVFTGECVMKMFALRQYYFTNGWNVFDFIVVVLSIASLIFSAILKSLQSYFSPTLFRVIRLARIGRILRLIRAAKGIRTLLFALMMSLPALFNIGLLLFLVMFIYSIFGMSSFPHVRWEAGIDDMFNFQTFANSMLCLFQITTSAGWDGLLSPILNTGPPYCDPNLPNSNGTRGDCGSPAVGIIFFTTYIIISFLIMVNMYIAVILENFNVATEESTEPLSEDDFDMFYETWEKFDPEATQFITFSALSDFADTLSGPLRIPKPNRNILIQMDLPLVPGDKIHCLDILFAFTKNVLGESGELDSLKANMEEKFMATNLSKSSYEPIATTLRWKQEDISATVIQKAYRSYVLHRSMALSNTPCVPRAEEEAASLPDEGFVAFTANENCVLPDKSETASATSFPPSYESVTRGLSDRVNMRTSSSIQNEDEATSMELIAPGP

CC(C)COC(=O)N1CCN(c2cccc3c2cnn3-c2ccccc2F)C1=O [Example 5, isobutyl 3-[1-(2-fluorophenyl)-1H-indazol-4-yl]-2-oxoimidazolidine-1-carboxylate]
IC50 (human Nav1.7): 0.166 µM | IC50 (human Nav1.8): 0.0572 µM

O=C(Cn1ccn(-c2cccc3c2cnn3-c2ccccc2F)c1=O)N1CC[C@H](F)C1 [Example 11, 1-[1-(2-fluorophenyl)-1H-indazol-4-yl]-3-{2-[(3S)-3-fluoropyrrolidin-1-yl]-2-oxoethyl}-1,3-dihydro-2H-imidazol-2-one]
IC50 (human Nav1.7): 0.483 µM | IC50 (human Nav1.8): 1.47 µM

O=C(CN1CCN(c2cccc3c2cnn3-c2ccccc2F)C1=O)N1CCC(F)CC1 [Example 69, 1-[1-(2-fluorophenyl)-1H-indazol-4-yl]-3-[2-(4-fluoropiperidin-1-yl)-2-oxoethyl]imidazolidin-2-one]
IC50 (human Nav1.7): 2.95 µM | IC50 (human Nav1.8): 4.8 µM

O=C(CN1CCN(c2cccc3c2cnn3-c2ccccc2F)C1=O)NCC1CCOC1 (centres unmarked) [Example 75, 2-{3-[1-(2-fluorophenyl)-1H-indazol-4-yl]-2-oxoimidazolidin-1-yl}-N-(tetrahydrofuran-3-ylmethyl)acetamide]
IC50 (human Nav1.7): 7.49 µM | IC50 (human Nav1.8): 12.1 µM

O=C(CN1CCN(c2cccc3c2cnn3-c2ccccc2F)C1=O)N[C@H]1CCOC1 [Example 87, 2-{3-[1-(2-fluorophenyl)-1H-indazol-4-yl]-2-oxoimidazolidin-1-yl}-N-[(3S)-tetrahydrofuran-3-yl]acetamide]
IC50 (human Nav1.7): 2.46 µM | IC50 (human Nav1.8): 5.56 µM

O=C(CN1CCN(c2cccc3c2cnn3-c2cccc(OC(F)(F)F)c2)C1=O)N1CC[C@H](F)C1 [Example 88, 1-{2-[(3S)-3-fluoropyrrolidin-1-yl]-2-oxoethyl}-3-{1-[3-(trifluoromethoxy)phenyl]-1H-indazol-4-yl}imidazolidin-2-one]
IC50 (human Nav1.7): 0.351 µM | IC50 (human Nav1.8): 1.37 µM

CCN(CC)C(=O)CN1CCN(c2cccc3c2cnn3-c2ccccc2F)C1=O [Example 93, N,N-diethyl-2-{3-[1-(2-fluorophenyl)-1H-indazol-4-yl]-2-oxoimidazolidin-1-yl}acetamide]
IC50 (human Nav1.7): 10.7 µM | IC50 (human Nav1.8): 5.18 µM

O=C(CN1CCN(c2cccc3c2cnn3-c2ccccc2F)C1=O)N1CC2(COC2)C1 [Example 100, 1-[1-(2-fluorophenyl)-1H-indazol-4-yl]-3-[2-(2-oxa-6-azaspiro[3.3]hept-6-yl)-2-oxoethyl]imidazolidin-2-one]
IC50 (human Nav1.7): 5.01 µM | IC50 (human Nav1.8): 20 µM

CS(=O)(=O)N1CC(N2CCN(c3cccc4c3cnn4-c3ccccc3F)C2=O)C1 [Example 271, 1-[1-(2-fluorophenyl)-1H-indazol-4-yl]-3-[1-(methylsulfonyl)azetidin-3-yl]imidazolidin-2-one]
IC50 (human Nav1.7): 3.45 µM

O=C1N(c2cccc3c2cnn3-c2ccccc2F)CCN1[C@@H]1CCCC[C@H]1OCc1ccccc1 [Example 272, 1-[(1R,2R)-2-(benzyloxy)cyclohexyl]-3-[1-(2-fluorophenyl)-1H-indazol-4-yl]imidazolidin-2-one]
IC50 (human Nav1.7): 0.338 µM

O=C1N(c2cccc3c2cnn3-c2ccccc2F)CCN1[C@@H]1CCCC[C@H]1O [Example 273, 1-[1-(2-fluorophenyl)-1H-indazol-4-yl]-3-[(1R,2R)-2-hydroxycyclohexyl]imidazolidin-2-one]
IC50 (human Nav1.7): 4.86 µM

CCCS(=O)(=O)N1CC(N2CCN(c3cccc4c3cnn4-c3ccccc3F)C2=O)C1 [Example 274, 1-[1-(2-fluorophenyl)-1H-indazol-4-yl]-3-[1-(propylsulfonyl)azetidin-3-yl]imidazolidin-2-one]
IC50 (human Nav1.7): 2.74 µM | IC50 (human Nav1.8): 1.4 µM

O=C1N(c2cccc3c2cnn3-c2ccccc2F)CCN1[C@H]1CCCC[C@@H]1OCc1ccccc1 [Example 275, 1-[(1S,2S)-2-(benzyloxy)cyclohexyl]-3-[1-(2-fluorophenyl)-1H-indazol-4-yl]imidazolidin-2-one]
IC50 (human Nav1.7): 1.41 µM | IC50 (human Nav1.8): 3.7 µM

O=C1N(c2cccc3c2cnn3-c2ccccc2F)CCN1[C@H]1CCCC[C@@H]1O [Example 276, 1-[1-(2-fluorophenyl)-1H-indazol-4-yl]-3-[(1S,2S)-2-hydroxycyclohexyl]imidazolidin-2-one]
IC50 (human Nav1.7): 15.1 µM | IC50 (human Nav1.8): 6.44 µM

O=C(CN1CCN(c2cccc3c2cnn3-c2ccccc2)C1=O)N1CCCC1 [Example 277, 1-[2-oxo-2-(pyrrolidin-1-yl)ethyl]-3-(1-phenyl-1H-indazol-4-yl)imidazolidin-2-one]
IC50 (human Nav1.7): 3.06 µM

O=C(CN1CCN(c2cccc3c2cnn3-c2ccccn2)C1=O)N1CCCC1 [Example 278, 1-[2-oxo-2-(pyrrolidin-1-yl)ethyl]-3-[1-(pyridin-2-yl)-1H-indazol-4-yl]imidazolidin-2-one]
IC50 (human Nav1.7): 5.78 µM

CO[C@H]1CCCC[C@@H]1N1CCN(c2cccc3c2cnn3-c2ccccc2F)C1=O [Example 279, 1-[1-(2-fluorophenyl)-1H-indazol-4-yl]-3-[(1S,2S)-2-methoxycyclohexyl]imidazolidin-2-one]
IC50 (human Nav1.7): 1.86 µM | IC50 (human Nav1.8): 5.64 µM

CC(C)CO[C@H]1CCCC[C@@H]1N1CCN(c2cccc3c2cnn3-c2ccccc2F)C1=O [Example 280, 1-[1-(2-fluorophenyl)-1H-indazol-4-yl]-3-[(1S,2S)-2-isobutoxycyclohexyl]imidazolidin-2-one]
IC50 (human Nav1.7): 0.518 µM | IC50 (human Nav1.8): 10.8 µM

O=C1CCCC[C@@H]1N1CCN(c2cccc3c2cnn3-c2ccccc2F)C1=O [Example 281, 1-[1-(2-fluorophenyl)-1H-indazol-4-yl]-3-[(1S)-2-oxocyclohexyl]imidazolidin-2-one]
IC50 (human Nav1.7): 11.6 µM | IC50 (human Nav1.8): 12.4 µM

CCOC(=O)/C=C\N1CCN(c2cccc3c2cnn3-c2ccccc2F)C1=O [Example 287, ethyl (2Z)-3-{3-[1-(2-fluorophenyl)-1H-indazol-4-yl]-2-oxoimidazolidin-1-yl}acrylate]
IC50 (human Nav1.7): 5.8 µM

CCOC(=O)/C=C/N1CCN(c2cccc3c2cnn3-c2ccccc2F)C1=O [Example 288, ethyl (2E)-3-{3-[1-(2-fluorophenyl)-1H-indazol-4-yl]-2-oxoimidazolidin-1-yl}acrylate]
IC50 (human Nav1.7): 5.3 µM

CO[C@H]1C[C@H](NC(=O)CN2CCN(c3cccc4c3cnn4-c3ccccc3F)C2=O)C1 [Example 326, 2-{3-[1-(2-fluorophenyl)-1H-indazol-4-yl]-2-oxoimidazolidin-1-yl}-N-(trans-3-methoxycyclobutyl)acetamide]
IC50 (human Nav1.8): 5.25 µM

CC1(C)CC1NC(=O)CN1CCN(c2cccc3c2cnn3-c2ccccc2F)C1=O (centres unmarked) [Example 328, N-(2,2-dimethylcyclopropyl)-2-{3-[1-(2-fluorophenyl)-1H-indazol-4-yl]-2-oxoimidazolidin-1-yl}acetamide]
IC50 (human Nav1.7): 3.02 µM

O=C(CN1CCN(c2cccc3c2cnn3-c2ccccc2F)C1=O)N1CCC(C(F)F)C1 (centres unmarked) [Example 330, 1-{2-[3-(difluoromethyl)pyrrolidin-1-yl]-2-oxoethyl}-3-[1-(2-fluorophenyl)-1H-indazol-4-yl]imidazolidin-2-one]
IC50 (human Nav1.7): 1.15 µM

CN1CCN(c2cccc3c2cnn3-c2ccccc2F)C1=O [Example 344, 1-[1-(2-fluorophenyl)-1H-indazol-4-yl]-3-methylimidazolidin-2-one]
IC50 (human Nav1.8): 7.38 µM

O=C(CN1CCN(c2cccc3c2cnn3-c2ccccc2F)C1=O)NC1CCC(F)(F)CC1 [Example 356, N-(4,4-difluorocyclohexyl)-2-{3-[1-(2-fluorophenyl)-1H-indazol-4-yl]-2-oxoimidazolidin-1-yl}acetamide]
IC50 (human Nav1.7): 1.86 µM

CC(C)(C)CNC(=O)CN1CCN(c2cccc3c2cnn3-c2ccccc2F)C1=O [Example 357, N-(2,2-dimethylpropyl)-2-{3-[1-(2-fluorophenyl)-1H-indazol-4-yl]-2-oxoimidazolidin-1-yl}acetamide]
IC50 (human Nav1.7): 3.06 µM
